A short description of series [1]: in vivo. The note with it: BALB/c, mouse, plasma, po, 50 mg/kg.
Procedure: (§1) After 0.5, 1, 2, 4, and 6 hours from administration, blood of each mouse was collected from the retro-orbital sinus, and the concentration of compound 1 in plasma was measured.
Series [2] is described as follows: Differential scanning calorimetry (DSC), phase transition on heating. The note with it: when the temperature was increased (10° C./min).
Procedure: DSC measurement was performed under the following conditions.
Device: TA Instruments Q1000
Sample Container: made of aluminum
Temperature Increase Rate: 10° C./min
Atmospheric Gas: Nitrogen
Nitrogen Gas Flow: 50 ml/min
The nature of series [3]: Oral absorbability: plasma concentration of compound 1 after oral administration to mice. The note with it: BALB/c mice, 50 mg/kg, suspension in 0.5% HPMC aqueous solution, plasma sampled 0.5-6 hours.
Procedure: as §1

The record followed here is patent US10434103B2, “Crystal of 3,5-disubstituted benzene alkynyl compound” (TAIHO PHARMACEUTICAL CO., LTD., priority 2015, dated 2019).

Consider `C=CC(=O)N1CC[C@H](n2nc(C#Cc3cc(OC)cc(OC)c3)c3c(N)ncnc32)C1` [Crystal I, (S)-1-(3-(4-amino-3-((3,5-dimethoxyphenyl)ethynyl)-1H-pyrazolo[3,4-d]pyrimidin-1-yl)-1-pyrrolidinyl)-2-propen-1-one], for which, in series [1], the AUC is 9.82 µM·h. In series [2], the “peak that suggests a phase transition in DSC measurement” value is “did not exhibit a peak that suggests a phase transition”.

Turning to `C=CC(=O)N1CC[C@H](n2nc(C#Cc3cc(OC)cc(OC)c3)c3c(N)ncnc32)C1` [Crystal II, (S)-1-(3-(4-amino-3-((3,5-dimethoxyphenyl)ethynyl)-1H-pyrazolo[3,4-d]pyrimidin-1-yl)-1-pyrrolidinyl)-2-propen-1-one], the “peak that suggests a phase transition in DSC measurement” value in series [2] was “did not exhibit a peak that suggests a phase transition”. The same compound showed an AUC in series [3] of 4.99 µM·h.
